Measured values taken from publication PMC10436550, “Subacute toxicity evaluations of LPM3480392 in rats, a full µ-opioid receptor biased agonist” (Frontiers in Pharmacology, 2023).

How the values were obtained:
Sprague Dawley (SD) rats [1] = test: Gross necropsy; type: in vivo, rat; settings: end of dosing phase and recovery phase
Description: Complete gross necropsies were conducted on all surviving animals at the end of treatment (the day after the last dosing) and recovery periods. The following selected organs were weighed and evaluated in terms of organ/body or organ/brain weight ratios: brain, kidneys, adrenals, testes, ovaries, uterus, epididymides, thymus, spleen, heart and liver. Paired organs were weighed together. Organ-to-body weight ratio = Organ weight(g)/Body weight(g) × 100%, and Organ-to-brain weight ratio = Organ weight(g)/Brain weight(g) × 100%.

Sprague Dawley (SD) rats [2] = test: Hematology, 4-week subacute toxicity study
[3] = female rats, 0.6 mg/kg/day, End of dosing phase
[4] = female rats, 0.6 mg/kg/day, End of recovery phase
[5] = female rats, 1.2 mg/kg/day, End of dosing phase
[6] = female rats, 1.2 mg/kg/day, End of recovery phase
[7] = female rats, 2.4 mg/kg/day, End of dosing phase
[8] = female rats, 2.4 mg/kg/day, End of recovery phase
[9] = female rats, end of dosing phase
[10] = male rats, 0.6 mg/kg/day, End of dosing phase
[11] = male rats, 0.6 mg/kg/day, End of recovery phase
[12] = male rats, 1.2 mg/kg/day, End of dosing phase
[13] = male rats, 1.2 mg/kg/day, End of recovery phase
[14] = male rats, 2.4 mg/kg/day, End of dosing phase
[15] = male rats, 2.4 mg/kg/day, End of recovery phase

`Fc1ccc([C@]2(CCNCc3cccc(Cl)c3)CCO[C@]3(CCOC3)C2)nc1` [LPM3480392] was tested, and the “Gross necropsy findings in main organs” value (Sprague Dawley (SD) rats [1]) was “no LPM3480392-related abnormalities”, the LYM (Sprague Dawley (SD) rats [2]; [3]) was 4.17 ± 0.90 10^9/L and the LYM% (Sprague Dawley (SD) rats [2]; [3]) was 86.1 ± 5.8%. The MCV (Sprague Dawley (SD) rats [2]; [3]) was 58.1 ± 1.5 fL, the MONO (Sprague Dawley (SD) rats [2]; [3]) was 0.05 ± 0.02 10^9/L and the MONO% (Sprague Dawley (SD) rats [2]; [3]) was 1.1 ± 0.4 %. For the same molecule, the NEU (Sprague Dawley (SD) rats [2]; [3]) was 0.51 ± 0.26 10^9/L, the NEU% (Sprague Dawley (SD) rats [2]; [3]) was 10.6 ± 5.5% and the PLT (Sprague Dawley (SD) rats [2]; [3]) was 1072 ± 103 10^9/L. The RBC (Sprague Dawley (SD) rats [2]; [3]) was 6.90 ± 0.35 10^12/L, the WBC (Sprague Dawley (SD) rats [2]; [3]) was 4.84 ± 0.93 10^9/L and the LYM (Sprague Dawley (SD) rats [2]; [4]) was 3.46 ± 0.53 10^9/L. For the same molecule, the LYM% (Sprague Dawley (SD) rats [2]; [4]) was 85.8 ± 4.4 %, the MCV (Sprague Dawley (SD) rats [2]; [4]) was 56.4 ± 1.2 fL and the MONO (Sprague Dawley (SD) rats [2]; [4]) was 0.04 ± 0.02 10^9/L. The MONO% (Sprague Dawley (SD) rats [2]; [4]) was 1.1 ± 0.4 %, the NEU (Sprague Dawley (SD) rats [2]; [4]) was 0.42 ± 0.17^* 10^9/L and the NEU% (Sprague Dawley (SD) rats [2]; [4]) was 10.6 ± 4.8 %. The PLT (Sprague Dawley (SD) rats [2]; [4]) was 975 ± 144 10^9/L, the RBC (Sprague Dawley (SD) rats [2]; [4]) was 7.56 ± 0.22 10^12/L and the WBC (Sprague Dawley (SD) rats [2]; [4]) was 4.03 ± 0.57 10^9/L. For the same molecule, the LYM (Sprague Dawley (SD) rats [2]; [5]) was 4.21 ± 1.29 10^9/L, the LYM% (Sprague Dawley (SD) rats [2]; [5]) was 85.7 ± 7.2% and the MCV (Sprague Dawley (SD) rats [2]; [5]) was 58.7 ± 2.1 fL. For the same molecule, the MONO (Sprague Dawley (SD) rats [2]; [5]) was 0.05 ± 0.02 10^9/L, the MONO% (Sprague Dawley (SD) rats [2]; [5]) was 0.9 ± 0.3 % and the NEU (Sprague Dawley (SD) rats [2]; [5]) was 0.50 ± 0.24 10^9/L. The NEU% (Sprague Dawley (SD) rats [2]; [5]) was 11.1 ± 7.2%, the PLT (Sprague Dawley (SD) rats [2]; [5]) was 1064 ± 104 10^9/L and the RBC (Sprague Dawley (SD) rats [2]; [5]) was 6.59 ± 0.26^* 10^12/L. For the same molecule, the WBC (Sprague Dawley (SD) rats [2]; [5]) was 4.87 ± 1.28 10^9/L, the LYM (Sprague Dawley (SD) rats [2]; [6]) was 2.95 ± 0.75 10^9/L and the LYM% (Sprague Dawley (SD) rats [2]; [6]) was 85.9 ± 3.0 %. The MCV (Sprague Dawley (SD) rats [2]; [6]) was 56.6 ± 1.8 fL, the MONO (Sprague Dawley (SD) rats [2]; [6]) was 0.04 ± 0.01 10^9/L and the MONO% (Sprague Dawley (SD) rats [2]; [6]) was 1.2 ± 0.4 %. The NEU (Sprague Dawley (SD) rats [2]; [6]) was 0.35 ± 0.08^* 10^9/L, the NEU% (Sprague Dawley (SD) rats [2]; [6]) was 10.6 ± 2.5 % and the PLT (Sprague Dawley (SD) rats [2]; [6]) was 975 ± 42 10^9/L. The RBC (Sprague Dawley (SD) rats [2]; [6]) was 7.44 ± 0.33 10^12/L, the WBC (Sprague Dawley (SD) rats [2]; [6]) was 3.42 ± 0.78 10^9/L and the LYM (Sprague Dawley (SD) rats [2]; [7]) was 2.53 ± 0.59 10^9/L. The LYM% (Sprague Dawley (SD) rats [2]; [7]) was 81.1 ± 5.3%, the MCV (Sprague Dawley (SD) rats [2]; [7]) was 58.1 ± 1.9 fL and the MONO (Sprague Dawley (SD) rats [2]; [7]) was 0.03 ± 0.02^* 10^9/L. The MONO% (Sprague Dawley (SD) rats [2]; [7]) was 1.0 ± 0.3 %, the NEU (Sprague Dawley (SD) rats [2]; [7]) was 0.51 ± 0.29 10^9/L and the NEU% (Sprague Dawley (SD) rats [2]; [7]) was 15.4 ± 4.6%. For the same molecule, the PLT (Sprague Dawley (SD) rats [2]; [7]) was 946 ± 108^* 10^9/L, the RBC (Sprague Dawley (SD) rats [2]; [7]) was 6.57 ± 0.30^* 10^12/L and the WBC (Sprague Dawley (SD) rats [2]; [7]) was 3.15 ± 0.87 10^9/L. The LYM (Sprague Dawley (SD) rats [2]; [8]) was 3.02 ± 0.62 10^9/L, the LYM% (Sprague Dawley (SD) rats [2]; [8]) was 83.7 ± 3.4 % and the MCV (Sprague Dawley (SD) rats [2]; [8]) was 56.8 ± 0.8 fL. The MONO (Sprague Dawley (SD) rats [2]; [8]) was 0.04 ± 0.01 10^9/L, the MONO% (Sprague Dawley (SD) rats [2]; [8]) was 1.2 ± 0.3 % and the NEU (Sprague Dawley (SD) rats [2]; [8]) was 0.46 ± 0.09^* 10^9/L. For the same molecule, the NEU% (Sprague Dawley (SD) rats [2]; [8]) was 12.8 ± 2.8 %, the PLT (Sprague Dawley (SD) rats [2]; [8]) was 998 ± 45 10^9/L and the RBC (Sprague Dawley (SD) rats [2]; [8]) was 7.45 ± 0.17 10^12/L. The WBC (Sprague Dawley (SD) rats [2]; [8]) was 3.60 ± 0.67 10^9/L, the “Magnitude of change of MCV” value (Sprague Dawley (SD) rats [2]; [9]) was “less than 5%” and the “Magnitude of change of PLT” value (Sprague Dawley (SD) rats [2]; [9]) was < 15%. For the same molecule, the “Magnitude of change of RBC” value (Sprague Dawley (SD) rats [2]; [9]) was < 6%, the EOS (Sprague Dawley (SD) rats [2]; [10]) was 0.042 ± 0.013 10^9/L and the EOS% (Sprague Dawley (SD) rats [2]; [10]) was 0.90 ± 0.42%. For the same molecule, the MONO (Sprague Dawley (SD) rats [2]; [10]) was 0.07 ± 0.03 10^9/L, the MONO% (Sprague Dawley (SD) rats [2]; [10]) was 1.3 ± 0.6% and the RBC (Sprague Dawley (SD) rats [2]; [10]) was 7.05 ± 0.32 10^12/L. The RET (Sprague Dawley (SD) rats [2]; [10]) was 0.300 ± 0.051 10^12/L, the RET % (Sprague Dawley (SD) rats [2]; [10]) was 4.26 ± 0.77% and the WBC (Sprague Dawley (SD) rats [2]; [10]) was 5.19 ± 1.38 10^9/L. The EOS (Sprague Dawley (SD) rats [2]; [11]) was 0.046 ± 0.018 10^9/L, the EOS% (Sprague Dawley (SD) rats [2]; [11]) was 1.14 ± 0.38% and the MONO (Sprague Dawley (SD) rats [2]; [11]) was 0.04 ± 0.02 10^9/L. For the same molecule, the MONO% (Sprague Dawley (SD) rats [2]; [11]) was 1.0 ± 0.4%, the RBC (Sprague Dawley (SD) rats [2]; [11]) was 7.96 ± 0.24 10^12/L and the RET (Sprague Dawley (SD) rats [2]; [11]) was 0.144 ± 0.021 10^12/L. For the same molecule, the RET % (Sprague Dawley (SD) rats [2]; [11]) was 1.81 ± 0.30%, the WBC (Sprague Dawley (SD) rats [2]; [11]) was 4.04 ± 1.12 10^9/L and the EOS (Sprague Dawley (SD) rats [2]; [12]) was 0.035 ± 0.016^* 10^9/L. For the same molecule, the EOS% (Sprague Dawley (SD) rats [2]; [12]) was 0.77 ± 0.39%, the MONO (Sprague Dawley (SD) rats [2]; [12]) was 0.05 ± 0.02 10^9/L and the MONO% (Sprague Dawley (SD) rats [2]; [12]) was 1.1 ± 0.3%. For the same molecule, the RBC (Sprague Dawley (SD) rats [2]; [12]) was 7.06 ± 0.32 10^12/L, the RET (Sprague Dawley (SD) rats [2]; [12]) was 0.331 ± 0.062^* 10^12/L and the RET % (Sprague Dawley (SD) rats [2]; [12]) was 4.70 ± 0.92 %. The WBC (Sprague Dawley (SD) rats [2]; [12]) was 4.56 ± 0.55 10^9/L, the EOS (Sprague Dawley (SD) rats [2]; [13]) was 0.042 ± 0.013 10^9/L and the EOS% (Sprague Dawley (SD) rats [2]; [13]) was 0.90 ± 0.12%. For the same molecule, the MONO (Sprague Dawley (SD) rats [2]; [13]) was 0.04 ± 0.02 10^9/L, the MONO% (Sprague Dawley (SD) rats [2]; [13]) was 0.9 ± 0.3% and the RBC (Sprague Dawley (SD) rats [2]; [13]) was 7.99 ± 0.29 10^12/L. The RET (Sprague Dawley (SD) rats [2]; [13]) was 0.132 ± 0.017 10^12/L, the RET % (Sprague Dawley (SD) rats [2]; [13]) was 1.65 ± 0.21% and the WBC (Sprague Dawley (SD) rats [2]; [13]) was 4.50 ± 1.16 10^9/L. The EOS (Sprague Dawley (SD) rats [2]; [14]) was 0.022 ± 0.014^* 10^9/L, the EOS% (Sprague Dawley (SD) rats [2]; [14]) was 0.49 ± 0.29 % and the MONO (Sprague Dawley (SD) rats [2]; [14]) was 0.04 ± 0.02^* 10^9/L. For the same molecule, the MONO% (Sprague Dawley (SD) rats [2]; [14]) was 0.9 ± 0.4%, the RBC (Sprague Dawley (SD) rats [2]; [14]) was 7.05 ± 0.37 10^12/L and the RET (Sprague Dawley (SD) rats [2]; [14]) was 0.387 ± 0.053^* 10^12/L. The RET % (Sprague Dawley (SD) rats [2]; [14]) was 5.51 ± 0.83 %, the WBC (Sprague Dawley (SD) rats [2]; [14]) was 4.24 ± 0.98 10^9/L and the EOS (Sprague Dawley (SD) rats [2]; [15]) was 0.032 ± 0.011 10^9/L. For the same molecule, the EOS% (Sprague Dawley (SD) rats [2]; [15]) was 0.66 ± 0.21%, the MONO (Sprague Dawley (SD) rats [2]; [15]) was 0.05 ± 0.02 10^9/L and the MONO% (Sprague Dawley (SD) rats [2]; [15]) was 1.1 ± 0.3%. The RBC (Sprague Dawley (SD) rats [2]; [15]) was 7.62 ± 0.37 10^12/L, the RET (Sprague Dawley (SD) rats [2]; [15]) was 0.157 ± 0.008 10^12/L and the RET % (Sprague Dawley (SD) rats [2]; [15]) was 2.07 ± 0.11 %. The WBC (Sprague Dawley (SD) rats [2]; [15]) was 5.02 ± 0.40 10^9/L.
